From PubChem BioAssay AID1845219 (Molecular Pharmacology Branch, DTP, NCI, 2023)

Test system: SYO-1 tumor spheroids, viability % test/control
Experiment: Anticancer human tumor SYO-1 cell line growth inhibition;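 also: spheroids exposed to agents for 7 days before viability read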;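 as to viability, T/C: 100% = DMSO vehicle control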
Conditions: spheroids with HUVEC and MSC; for IC50: curve of first compound; for viability, T/C: stronger effect = lower value
Procedure, shortened: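 Complex spheroids of malignant cells with endothelial cells and mesenchymal stem cells; agents alone or combined, from near clinical Cmax (or 10 microM if unknown) down in half-log steps, 0.25% DMSO final.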

[1] = second compound 1 µM, first compound 0.0949 µM
[2] = second compound 1 µM, first compound 0.3 µM
[3] = second compound 1 µM, first compound 0.949 µM
[4] = second compound 1 µM, first compound 3 µM
[5] = second compound 3.16 µM, first compound 0.0949 µM
[6] = second compound 3.16 µM, first compound 0.3 µM
[7] = second compound 3.16 µM, first compound 0.949 µM
[8] = second compound 3.16 µM, first compound 3 µM
[9] = second compound 10 µM, first compound 0.0949 µM
[10] = second compound 10 µM, first compound 0.3 µM
[11] = second compound 10 µM, first compound 0.949 µM
[12] = second compound 10 µM, first compound 3 µM
[13] = second compound 31.6 µM, first compound 0.0949 µM
[14] = second compound 31.6 µM, first compound 0.3 µM
[15] = second compound 31.6 µM, first compound 0.949 µM
[16] = second compound 31.6 µM, first compound 3 µM
[17] = second compound 100 µM, first compound 0.0949 µM
[18] = second compound 100 µM, first compound 0.3 µM
[19] = second compound 100 µM, first compound 0.949 µM
[20] = second compound 100 µM, first compound 3 µM

O=C(c1cc(Cc2n[nH]c(=O)c3ccccc23)ccc1F)N1CCN(C(=O)C2CC2)CC1 + Cn1nnc2c(C(N)=O)ncn2c1=O
IC50 (second compound 1 µM): 1660 nM | IC50 (second compound 3.16 µM): 1620 nM | IC50 (second compound 10 µM): 677 nM | IC50 (second compound 31.6 µM): 155 nM | IC50 (second compound 100 µM): < 94.9 nM | viability, T/C [1]: 103% | viability, T/C [2]: 96.2% | viability, T/C [3]: 88.9% | viability, T/C [4]: 9.23% | viability, T/C (second compound 1 µM, first compound 9.49 µM): 2.81% | viability, T/C (second compound 1 µM, first compound 30 µM): 1.98% | viability, T/C [5]: 103% | viability, T/C [6]: 94.3% | viability, T/C [7]: 88.4% | viability, T/C [8]: 6.01% | viability, T/C (second compound 3.16 µM, first compound 9.49 µM): 2.08% | viability, T/C (second compound 3.16 µM, first compound 30 µM): 1.94% | viability, T/C [9]: 103% | viability, T/C [10]: 94.6% | viability, T/C [11]: 31.6% | viability, T/C [12]: 2.83% | viability, T/C (second compound 10 µM, first compound 9.49 µM): 1.83% | viability, T/C (second compound 10 µM, first compound 30 µM): 1.82% | viability, T/C [13]: 76.8% | viability, T/C [14]: 13.5% | viability, T/C [15]: 3.35% | viability, T/C [16]: 2.28% | viability, T/C (second compound 31.6 µM, first compound 9.49 µM): 2.18% | viability, T/C (second compound 31.6 µM, first compound 30 µM): 1.77% | viability, T/C [17]: 3.25% | viability, T/C [18]: 2.69% | viability, T/C [19]: 2.42% | viability, T/C [20]: 2.49% | viability, T/C (second compound 100 µM, first compound 9.49 µM): 1.81% | viability, T/C (second compound 100 µM, first compound 30 µM): 1.75%

Cc1cc(C)c(CNC(=O)c2cc(-c3ccc(CN4CCOCC4)cc3)cc3c2cnn3C2CCCC2)c(=O)[nH]1 + Cn1nnc2c(C(N)=O)ncn2c1=O
IC50 (second compound 1 µM): > 10000 nM | IC50 (second compound 3.16 µM): > 10000 nM | IC50 (second compound 10 µM): > 10000 nM | IC50 (second compound 31.6 µM): > 10000 nM | IC50 (second compound 100 µM): 7990 nM | viability, T/C (second compound 1 µM, first compound 0.0316 µM): 106% | viability, T/C (second compound 1 µM, first compound 0.1 µM): 105% | viability, T/C (second compound 1 µM, first compound 0.316 µM): 110% | viability, T/C (second compound 1 µM, first compound 1 µM): 104% | viability, T/C (second compound 1 µM, first compound 3.16 µM): 106% | viability, T/C (second compound 1 µM, first compound 10 µM): 97% | viability, T/C (second compound 3.16 µM, first compound 0.0316 µM): 103% | viability, T/C (second compound 3.16 µM, first compound 0.1 µM): 106% | viability, T/C (second compound 3.16 µM, first compound 0.316 µM): 103% | viability, T/C (second compound 3.16 µM, first compound 1 µM): 104% | viability, T/C (second compound 3.16 µM, first compound 3.16 µM): 105% | viability, T/C (second compound 3.16 µM, first compound 10 µM): 89.6% | viability, T/C (second compound 10 µM, first compound 0.0316 µM): 103% | viability, T/C (second compound 10 µM, first compound 0.1 µM): 106% | viability, T/C (second compound 10 µM, first compound 0.316 µM): 106% | viability, T/C (second compound 10 µM, first compound 1 µM): 108% | viability, T/C (second compound 10 µM, first compound 3.16 µM): 101% | viability, T/C (second compound 10 µM, first compound 10 µM): 71.2% | viability, T/C (second compound 31.6 µM, first compound 0.0316 µM): 106% | viability, T/C (second compound 31.6 µM, first compound 0.1 µM): 108% | viability, T/C (second compound 31.6 µM, first compound 0.316 µM): 107% | viability, T/C (second compound 31.6 µM, first compound 1 µM): 111% | viability, T/C (second compound 31.6 µM, first compound 3.16 µM): 105% | viability, T/C (second compound 31.6 µM, first compound 10 µM): 74.6% | viability, T/C (second compound 100 µM, first compound 0.0316 µM): 107% | viability, T/C (second compound 100 µM, first compound 0.1 µM): 111% | viability, T/C (second compound 100 µM, first compound 0.316 µM): 107% | viability, T/C (second compound 100 µM, first compound 1 µM): 101% | viability, T/C (second compound 100 µM, first compound 3.16 µM): 76.1% | viability, T/C (second compound 100 µM, first compound 10 µM): 43.7%

CNCc1ccc(-c2cc(-c3nc(-c4ccc(S(=O)(=O)C(C)C)cc4)cnc3N)on2)cc1 + Cn1nnc2c(C(N)=O)ncn2c1=O
IC50 (second compound 1 µM): 145 nM | IC50 (second compound 3.16 µM): 163 nM | IC50 (second compound 10 µM): 147 nM | IC50 (second compound 31.6 µM): 80.8 nM | IC50 (second compound 100 µM): 47.6 nM | viability, T/C (second compound 1 µM, first compound 0.00949 µM): 105% | viability, T/C (second compound 1 µM, first compound 0.03 µM): 98.7% | viability, T/C [1]: 77.6% | viability, T/C [2]: 2.58% | viability, T/C [3]: 0.22% | viability, T/C [4]: 0.09% | viability, T/C (second compound 3.16 µM, first compound 0.00949 µM): 105% | viability, T/C (second compound 3.16 µM, first compound 0.03 µM): 103% | viability, T/C [5]: 91.6% | viability, T/C [6]: 2.75% | viability, T/C [7]: 0.12% | viability, T/C [8]: 0.09% | viability, T/C (second compound 10 µM, first compound 0.00949 µM): 107% | viability, T/C (second compound 10 µM, first compound 0.03 µM): 99% | viability, T/C [9]: 79.6% | viability, T/C [10]: 1.77% | viability, T/C [11]: 0.13% | viability, T/C [12]: 0.1% | viability, T/C (second compound 31.6 µM, first compound 0.00949 µM): 111% | viability, T/C (second compound 31.6 µM, first compound 0.03 µM): 106% | viability, T/C [13]: 40.9% | viability, T/C [14]: 1.76% | viability, T/C [15]: 0.23% | viability, T/C [16]: 0.11% | viability, T/C (second compound 100 µM, first compound 0.00949 µM): 107% | viability, T/C (second compound 100 µM, first compound 0.03 µM): 77.2% | viability, T/C [17]: 9.17% | viability, T/C [18]: 1.95% | viability, T/C [19]: 0.23% | viability, T/C [20]: 0.18%
